Measurements: patent US20230365546A1, “5-SUBSTITUTED INDOLE 3-AMIDE DERIVATIVES, PREPARATION METHOD AND USE THEREOF” (ORIGIANT PHARMACEUTICAL CO., LTD, priority 2020, published 2023)

How the values were obtained:
Assay in all cases: Kinase Profiler 10 μM panel
[1] = molecular target: Plk1(h) (Homo sapiens (Human), UniProt P53350)
Experimental: (§1) In vitro kinase assays were conducted using Kinase Profiler services provided by Eurofins. The experimental method was as follows: the small molecule compound to be tested (0.001-10 μM), the protein kinase to be tested were incubated with a buffer containing substrate, 10 mM magnesium acetate, and [γ-^33P-ATP], the reaction was started by adding Mg\TPmix, after incubation for a period of time at room temperature, a 3% phosphate solution was added to the buffer to stop the reaction. Subsequently, 10 μL of the reaction mixture was quantitatively pipetted onto P30 filter paper, which was washed three times with 75 mM phosphate solution and then once with methanol. The P30 filter paper was air-dried and scintillation fluid was added for scintillation counting.

[2] = molecular target: Met(Y1248D)(h) (Homo sapiens (Human), UniProt P08581, Y1230D)
Experimental: as §1

[3] = molecular target: GCK(h) (Homo sapiens (Human), UniProt Q12851)
Experimental: as §1

[4] = molecular target: MAPKAP-K2(h) (Homo sapiens (Human), UniProt P49137)
Experimental: as §1

[5] = molecular target: PKCμ(h) (Homo sapiens (Human), UniProt Q15139)
Experimental: as §1

[6] = molecular target: TGFBR1(h) (Homo sapiens (Human), UniProt P36897)
Experimental: as §1

[7] = molecular target: TSSK2(h) (Homo sapiens (Human), UniProt Q96PF2)
Experimental: as §1

[8] = molecular target: IKKß(h) (Homo sapiens (Human), UniProt O14920)
Experimental: as §1

[9] = molecular target: PI3 Kinase (p110b/p85a)(m) (Mus musculus (Mouse), UniProt Q8BTI9)
Experimental: as §1

[10] = molecular target: IR(h) (Homo sapiens (Human), UniProt P06213)
Experimental: as §1

[11] = molecular target: CDK4/cyclinD3(h) (Homo sapiens (Human), UniProt P11802)
Experimental: as §1

[12] = molecular target: PI3 Kinase (p110a/p85a)(h) (Homo sapiens (Human), UniProt P42336)
Experimental: The experimental method was as follows: the small molecule compound to be tested (0.001-10 μM), the protein kinase to be tested were incubated with a buffer containing substrate, 10 mM magnesium acetate, and [γ-^33P-ATP], the reaction was started by adding Mg\TPmix, after incubation for a period of time at room temperature, a 3% phosphate solution was added to the buffer to stop the reaction. Subsequently, 10 μL of the reaction mixture was quantitatively pipetted onto P30 filter paper, which was washed three times with 75 mM phosphate solution and then once with methanol. The P30 filter paper was air-dried and scintillation fluid was added for scintillation counting.

[13] = molecular target: SRPK1(h) (Homo sapiens (Human), UniProt Q96SB4)
Experimental: as §1

[14] = molecular target: ULK1(h) (Homo sapiens (Human), UniProt O75385)
Experimental: as §1

[15] = molecular target: TTBK1(h) (Homo sapiens (Human), UniProt Q5TCY1)
Experimental: as §1

[16] = molecular target: IRAK4(h) (Homo sapiens (Human), UniProt Q9NWZ3)
Experimental: as §1

[17] = molecular target: NLK(h) (Homo sapiens (Human), UniProt Q9UBE8)
Experimental: as §1

[18] = molecular target: NEK2(h) (Homo sapiens (Human), UniProt P51955)
Experimental: as §1

[19] = molecular target: PI3 Kinase (p110a(H1047R)/p85a)(m) (Mus musculus (Mouse), UniProt P42337, H1047R)
Experimental: as §1

[20] = molecular target: MEKK3(h) (Homo sapiens (Human), UniProt Q99759)
Experimental: as §1

[21] = molecular target: WNK1(h) (Homo sapiens (Human), UniProt Q9H4A3)
Experimental: as §1

[22] = molecular target: AAK1(h) (Homo sapiens (Human), UniProt Q2M2I8)
Experimental: as §1

[23] = molecular target: DDR1(h) (Homo sapiens (Human), UniProt Q08345)
Experimental: as §1

[24] = molecular target: MSK2(h) (Homo sapiens (Human), UniProt O75676)
Experimental: as §1

[25] = molecular target: NEK3(h) (Homo sapiens (Human), UniProt P51956)
Experimental: as §1

[26] = molecular target: STK25(h) (Homo sapiens (Human), UniProt O00506)
Experimental: as §1

[27] = molecular target: FGFR3(h) (Homo sapiens (Human), UniProt P22607)
Experimental: as §1

[28] = molecular target: ZAP-70(h) (Homo sapiens (Human), UniProt P43403)
Experimental: as §1

[29] = molecular target: PKCβII(h) (Homo sapiens (Human), UniProt P05771)
Experimental: as §1

[30] = molecular target: MAP4K5(h) (Homo sapiens (Human), UniProt Q9Y4K4)
Experimental: as §1

[31] = molecular target: BrSK2(h) (Homo sapiens (Human), UniProt Q8IWQ3)
Experimental: as §1

[32] = molecular target: PI3 Kinase (p110a(E545K)/p85a)(h) (Homo sapiens (Human), UniProt P42336, E545K)
Experimental: as §1

[33] = molecular target: Fms(Y969C)(h) (Homo sapiens (Human), UniProt P07333, Y969C)
Experimental: as §1

STK25(h), sequence (O00506 whole entry): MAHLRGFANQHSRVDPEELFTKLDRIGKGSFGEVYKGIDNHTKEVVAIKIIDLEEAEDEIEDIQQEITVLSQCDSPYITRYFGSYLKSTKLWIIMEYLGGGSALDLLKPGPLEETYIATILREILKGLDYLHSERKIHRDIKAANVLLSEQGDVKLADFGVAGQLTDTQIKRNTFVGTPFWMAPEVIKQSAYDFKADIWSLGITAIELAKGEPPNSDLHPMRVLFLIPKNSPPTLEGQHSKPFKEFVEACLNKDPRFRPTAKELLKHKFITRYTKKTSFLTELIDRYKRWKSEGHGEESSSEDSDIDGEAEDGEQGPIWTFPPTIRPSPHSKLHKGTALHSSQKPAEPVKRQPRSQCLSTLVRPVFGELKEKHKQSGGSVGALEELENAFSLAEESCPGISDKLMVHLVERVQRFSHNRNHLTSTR
Met(Y1248D)(h), sequence (P08581 956-1390 Y1230D limits assumed): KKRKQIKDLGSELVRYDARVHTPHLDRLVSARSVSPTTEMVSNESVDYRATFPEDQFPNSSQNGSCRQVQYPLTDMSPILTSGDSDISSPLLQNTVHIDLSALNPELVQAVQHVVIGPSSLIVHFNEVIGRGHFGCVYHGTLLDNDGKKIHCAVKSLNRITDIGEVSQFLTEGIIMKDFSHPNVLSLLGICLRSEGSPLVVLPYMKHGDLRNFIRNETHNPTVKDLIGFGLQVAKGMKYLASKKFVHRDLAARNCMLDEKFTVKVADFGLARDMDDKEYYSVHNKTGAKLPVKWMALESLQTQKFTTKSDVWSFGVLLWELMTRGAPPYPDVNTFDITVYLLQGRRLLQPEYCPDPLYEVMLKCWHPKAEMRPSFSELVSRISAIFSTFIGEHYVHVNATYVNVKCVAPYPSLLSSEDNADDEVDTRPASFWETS
MAPKAP-K2(h), sequence (P49137 whole entry): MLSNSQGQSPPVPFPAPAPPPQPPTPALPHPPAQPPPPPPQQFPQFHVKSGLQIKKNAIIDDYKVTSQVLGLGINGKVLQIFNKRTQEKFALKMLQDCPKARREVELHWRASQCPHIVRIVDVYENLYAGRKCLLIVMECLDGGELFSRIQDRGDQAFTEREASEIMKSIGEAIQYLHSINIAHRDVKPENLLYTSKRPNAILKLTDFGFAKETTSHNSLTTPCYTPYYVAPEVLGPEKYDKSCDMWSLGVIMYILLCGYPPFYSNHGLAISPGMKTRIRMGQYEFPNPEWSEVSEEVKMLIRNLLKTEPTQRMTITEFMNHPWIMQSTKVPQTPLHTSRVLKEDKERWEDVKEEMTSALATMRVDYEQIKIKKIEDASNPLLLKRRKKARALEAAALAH
IRAK4(h), sequence (Q9NWZ3 whole entry): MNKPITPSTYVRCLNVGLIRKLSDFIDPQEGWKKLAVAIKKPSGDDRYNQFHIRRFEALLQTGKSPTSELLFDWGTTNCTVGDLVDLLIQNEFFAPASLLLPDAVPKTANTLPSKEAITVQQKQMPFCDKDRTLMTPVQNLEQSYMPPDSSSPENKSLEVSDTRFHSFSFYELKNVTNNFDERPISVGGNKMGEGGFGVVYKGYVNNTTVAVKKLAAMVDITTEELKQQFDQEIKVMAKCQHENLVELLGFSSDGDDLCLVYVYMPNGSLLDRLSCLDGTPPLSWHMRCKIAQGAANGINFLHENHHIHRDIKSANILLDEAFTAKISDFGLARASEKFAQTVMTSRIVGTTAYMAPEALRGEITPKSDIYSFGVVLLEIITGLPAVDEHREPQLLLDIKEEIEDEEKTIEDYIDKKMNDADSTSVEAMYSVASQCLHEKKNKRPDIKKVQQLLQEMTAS
PKCβII(h), sequence (P05771 other isoform, or with tags, fused parts or gaps): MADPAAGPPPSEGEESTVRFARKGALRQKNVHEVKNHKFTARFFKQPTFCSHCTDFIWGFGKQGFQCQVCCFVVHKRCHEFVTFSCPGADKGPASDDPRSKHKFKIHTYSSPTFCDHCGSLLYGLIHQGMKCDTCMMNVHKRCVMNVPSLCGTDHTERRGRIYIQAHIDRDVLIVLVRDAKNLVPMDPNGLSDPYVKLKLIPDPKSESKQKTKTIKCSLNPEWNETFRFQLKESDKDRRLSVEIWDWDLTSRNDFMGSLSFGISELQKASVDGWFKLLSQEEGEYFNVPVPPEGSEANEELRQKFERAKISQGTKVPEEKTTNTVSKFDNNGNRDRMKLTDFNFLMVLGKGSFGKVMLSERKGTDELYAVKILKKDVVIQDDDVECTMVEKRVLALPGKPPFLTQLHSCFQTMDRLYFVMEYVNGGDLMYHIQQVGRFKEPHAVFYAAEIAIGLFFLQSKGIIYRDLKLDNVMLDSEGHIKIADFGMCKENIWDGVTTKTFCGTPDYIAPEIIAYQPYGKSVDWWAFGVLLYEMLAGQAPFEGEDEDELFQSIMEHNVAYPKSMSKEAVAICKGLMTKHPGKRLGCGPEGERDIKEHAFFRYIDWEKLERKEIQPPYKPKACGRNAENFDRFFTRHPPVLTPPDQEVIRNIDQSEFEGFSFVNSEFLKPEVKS
ULK1(h), sequence (O75385 whole entry): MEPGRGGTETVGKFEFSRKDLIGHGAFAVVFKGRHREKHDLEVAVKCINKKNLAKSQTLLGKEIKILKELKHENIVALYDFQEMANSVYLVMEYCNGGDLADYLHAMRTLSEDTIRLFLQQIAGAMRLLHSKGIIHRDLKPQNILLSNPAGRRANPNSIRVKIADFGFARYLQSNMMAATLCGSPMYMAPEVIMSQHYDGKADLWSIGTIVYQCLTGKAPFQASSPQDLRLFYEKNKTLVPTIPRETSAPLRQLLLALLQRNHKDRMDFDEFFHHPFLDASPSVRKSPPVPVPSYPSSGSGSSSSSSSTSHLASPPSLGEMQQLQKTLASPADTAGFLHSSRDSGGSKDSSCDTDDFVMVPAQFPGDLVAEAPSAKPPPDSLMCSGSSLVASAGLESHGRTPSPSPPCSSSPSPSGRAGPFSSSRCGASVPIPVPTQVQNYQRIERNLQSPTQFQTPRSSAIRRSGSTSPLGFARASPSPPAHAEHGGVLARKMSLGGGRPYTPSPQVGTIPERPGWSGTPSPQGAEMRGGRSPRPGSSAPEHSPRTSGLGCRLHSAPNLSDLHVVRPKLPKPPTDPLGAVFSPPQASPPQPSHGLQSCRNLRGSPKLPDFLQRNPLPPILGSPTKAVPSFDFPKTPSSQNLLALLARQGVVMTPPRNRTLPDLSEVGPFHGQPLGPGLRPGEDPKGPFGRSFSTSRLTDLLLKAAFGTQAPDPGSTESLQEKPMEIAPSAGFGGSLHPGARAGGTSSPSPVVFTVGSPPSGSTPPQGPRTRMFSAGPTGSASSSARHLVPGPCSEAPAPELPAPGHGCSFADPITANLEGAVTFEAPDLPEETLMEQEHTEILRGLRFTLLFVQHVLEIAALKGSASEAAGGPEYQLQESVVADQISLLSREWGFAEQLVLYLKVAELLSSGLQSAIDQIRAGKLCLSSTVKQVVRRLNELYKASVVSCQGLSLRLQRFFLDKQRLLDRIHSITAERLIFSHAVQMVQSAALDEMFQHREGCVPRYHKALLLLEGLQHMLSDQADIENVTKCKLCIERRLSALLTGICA
DDR1(h), sequence (Q08345 19-913): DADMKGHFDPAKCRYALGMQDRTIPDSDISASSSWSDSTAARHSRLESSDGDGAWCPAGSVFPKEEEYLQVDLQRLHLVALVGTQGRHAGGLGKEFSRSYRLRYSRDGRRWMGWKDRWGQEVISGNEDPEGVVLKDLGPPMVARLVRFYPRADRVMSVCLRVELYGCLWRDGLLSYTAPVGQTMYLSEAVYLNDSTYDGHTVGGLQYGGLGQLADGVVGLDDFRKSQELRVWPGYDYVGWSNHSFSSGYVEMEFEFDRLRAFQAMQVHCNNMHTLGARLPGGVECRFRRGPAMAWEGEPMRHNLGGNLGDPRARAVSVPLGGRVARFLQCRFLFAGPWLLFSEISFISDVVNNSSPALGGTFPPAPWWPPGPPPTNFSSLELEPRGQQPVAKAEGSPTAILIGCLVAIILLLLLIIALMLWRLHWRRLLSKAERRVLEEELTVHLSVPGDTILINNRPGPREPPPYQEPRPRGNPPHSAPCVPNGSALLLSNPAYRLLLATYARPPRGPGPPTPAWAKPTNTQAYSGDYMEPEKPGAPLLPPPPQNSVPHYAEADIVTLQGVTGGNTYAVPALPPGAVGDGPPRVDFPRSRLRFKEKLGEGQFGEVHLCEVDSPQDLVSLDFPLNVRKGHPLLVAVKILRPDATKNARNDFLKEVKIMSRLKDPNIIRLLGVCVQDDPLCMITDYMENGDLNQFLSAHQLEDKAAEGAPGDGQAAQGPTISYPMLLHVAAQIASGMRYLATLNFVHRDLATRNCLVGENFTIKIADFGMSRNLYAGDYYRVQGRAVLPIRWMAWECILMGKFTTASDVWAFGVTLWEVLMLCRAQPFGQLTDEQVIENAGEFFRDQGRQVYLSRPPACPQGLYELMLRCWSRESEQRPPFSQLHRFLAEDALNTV
NEK3(h), sequence (P51956 whole entry): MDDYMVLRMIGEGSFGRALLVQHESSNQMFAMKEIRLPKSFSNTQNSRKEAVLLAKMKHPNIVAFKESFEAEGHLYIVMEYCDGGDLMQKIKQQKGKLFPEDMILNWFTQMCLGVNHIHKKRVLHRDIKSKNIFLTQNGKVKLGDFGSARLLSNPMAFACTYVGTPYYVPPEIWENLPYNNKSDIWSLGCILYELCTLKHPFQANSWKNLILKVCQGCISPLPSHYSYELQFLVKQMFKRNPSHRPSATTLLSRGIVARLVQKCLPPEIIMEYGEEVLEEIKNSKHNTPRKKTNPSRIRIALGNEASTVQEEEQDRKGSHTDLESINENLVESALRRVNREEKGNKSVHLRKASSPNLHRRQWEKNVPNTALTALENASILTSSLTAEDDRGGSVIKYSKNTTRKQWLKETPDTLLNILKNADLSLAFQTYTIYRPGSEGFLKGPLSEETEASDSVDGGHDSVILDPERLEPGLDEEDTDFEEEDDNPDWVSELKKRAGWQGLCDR

`C[C@H](NC(=O)c1c[nH]c2ccc(-c3ccc4nc(NC(=O)C5CC5)sc4c3)cc12)c1cccc(F)c1` [Compound 34, (S)-5-(2-(cyclopropanecarboxamido)benzo[d]thiazol-6-yl)-N-(1-(3-fluorophenyl)ethyl)-1H-indole-3-carboxamide] showed an Inhibition ratio [1] of 8%, an Inhibition ratio [2] of 99% and an Inhibition ratio [3] of 62%. The Inhibition ratio [4] was −7%, the Inhibition ratio [5] was 6% and the Inhibition ratio [6] was 7%. It also gave an Inhibition ratio [7] of −6%, an Inhibition ratio ([8]; IKKß(h)) of 12% and an Inhibition ratio [9] of 15%. For the same molecule, the Inhibition ratio [10] was 36%, the Inhibition ratio [11] was −5% and the Inhibition ratio [12] was 23%. The Inhibition ratio [13] was 29%, the Inhibition ratio [14] was 11% and the Inhibition ratio [15] was 4%. It also gave an Inhibition ratio [16] of 15%, an Inhibition ratio [17] of 25% and an Inhibition ratio [18] of 21%. For the same molecule, the Inhibition ratio [19] was 17%, the Inhibition ratio [20] was 2% and the Inhibition ratio [21] was 10%. The Inhibition ratio [22] was 24%, the Inhibition ratio [23] was 51% and the Inhibition ratio [24] was 23%. It also gave an Inhibition ratio [25] of 10%, an Inhibition ratio [26] of 2% and an Inhibition ratio [27] of 35%. For the same molecule, the Inhibition ratio [28] was 8%, the Inhibition ratio [29] was 7% and the Inhibition ratio [30] was 64%. It also gave an Inhibition ratio [31] of 8%, an Inhibition ratio [32] of 32% and an Inhibition ratio [33] of 18%.

In the case of `C[C@H](NC(=O)c1cn(C)c2ccc(-c3ccn4nc(NC(=O)C5CC5)nc4c3)cc12)c1cccc(F)c1` [Compound 94, (S)-5-(2-(cyclopropanecarboxamido)-[1,2,4]triazolo[1,5-a]pyridin-7-yl)-N-(1-(3-fluorophenyl)ethyl)-1-methyl-1H-indole-3-carboxamide], the Inhibition ratio/% [1] is reported as 26%, the Inhibition ratio/% [2] is reported as 13% and the Inhibition ratio/% [3] is reported as −6%. It also gave an Inhibition ratio/% [4] of −1%, an Inhibition ratio/% [5] of 50% and an Inhibition ratio/% [6] of −3%. It also gave an Inhibition ratio/% [7] of 52%, an Inhibition ratio/% ([8]; IKKβ(h)) of −3% and an Inhibition ratio/% [9] of 10%. For the same molecule, the Inhibition ratio/% [10] was 27%, the Inhibition ratio/% [11] was 4% and the Inhibition ratio/% [12] was 3%. For the same molecule, the Inhibition ratio/% [13] was 50%, the Inhibition ratio/% [14] was 45% and the Inhibition ratio/% [15] was 13%. The Inhibition ratio/% [16] was −11%, the Inhibition ratio/% [17] was 16% and the Inhibition ratio/% [18] was 24%. The Inhibition ratio/% [19] was 47%, the Inhibition ratio/% [20] was 14% and the Inhibition ratio/% [21] was 45%. The Inhibition ratio/% [22] was 2%, the Inhibition ratio/% [23] was 21% and the Inhibition ratio/% [24] was 9%. The Inhibition ratio/% [25] was 14%, the Inhibition ratio/% [26] was 26% and the Inhibition ratio/% [27] was 40%. It also gave an Inhibition ratio/% [28] of 1%, an Inhibition ratio/% [29] of 10% and an Inhibition ratio/% [30] of 6%. The Inhibition ratio/% [31] was −2%, the Inhibition ratio/% [32] was 33% and the Inhibition ratio/% [33] was 13%.
